The values that follow are results of earlier work, collected in patent US20120289611A1, “PECTIN COMPOUNDS, METHODS OF USING PECTIN COMPOUNDS, AND METHODS OF CONTROLLING WATER SOLUBILITY” (priority 2009, published 2012).

Converted amounts (≈) assume the structure as drawn. “Also recorded” adds a separate entry of the source. Counter-ions that a name gives are not always drawn.

For one series the following is noted: in water (where stated).
Broadly, the solubility is the concentration that dissolves in the medium under given conditions. As to `Cc1c(OCC(F)(F)F)ccnc1C[S+]([O-])c1nc2ccccc2[nH]1` (centres unmarked) [Lansoprazole], the solubility was 0.97 µg/mL (≈ 2.63 µM).

On to `CCCCc1nc(Cl)c(CO)n1Cc1ccc(-c2ccccc2-c2nnn[n-]2)cc1.[K+]` [potassium losartan], for which the solubility was 0.82 µg/mL.

With `CN(C)CCCC1(c2ccc(F)cc2)OCc2cc(C#N)ccc21` (centres unmarked) [Citalopram Hydrobromide], the solubility is 31 µg/mL. `CCC(=O)O[C@]1(C(=O)SCF)[C@H](C)C[C@H]2[C@@H]3C[C@H](F)C4=CC(=O)C=C[C@]4(C)[C@@]3(F)[C@@H](O)C[C@@]21C` [Fluticasone propionate]: the solubility is 0.51 µg/mL (≈ 1.02 µM).

`COc1ccccc1OCCNCC(O)COc1cccc2[nH]c3ccccc3c12` (centres unmarked) [Carvedilol]: the solubility was 0.583 µg/mL (≈ 1.43 µM). In the case of `CCCCc1nc(Cl)c(CO)n1Cc1ccc(-c2ccccc2-c2nn[nH]n2)cc1` [Losartan], the solubility was 0.82 µg/mL (≈ 1.94 µM). As to `COC(=O)[C@H](c1ccccc1Cl)N1CCc2sccc2C1` [Clopidogrel bisulphate], the solubility is 50.78 µg/mL.

The series is the same for the next values; noted with them: organic solvent named in the value; hydrochloride.
For the compound `CCc1ccc(CCOc2ccc(CC3SC(=O)NC3=O)cc2)nc1` (centres unmarked) [Pioglitazone hydrochloride], the “solubility in words, other solvents” value is “slightly soluble in anhydrous ethanol; also recorded: very slightly soluble in acetone and acetonitrile; also recorded: insoluble in ether”.

The series is the same for the next values; noted with them: water, or solvent not stated.
As to `Cc1cc2c(s1)Nc1ccccc1N=C2N1CCN(C)CC1` [Olanzapine], the solubility in words result was “practically insoluble in water”.

Take `C[C@@H]1C[C@H]2[C@@H]3CCC4=CC(=O)C=C[C@]4(C)[C@@]3(Cl)[C@@H](O)C[C@]2(C)[C@@]1(OC(=O)c1ccco1)C(=O)CCl` [Mometasone furoate]: the solubility in words result is given as “practically insoluble”. For `CCCc1nc2c(C)cc(-c3nc4ccccc4n3C)cc2n1Cc1ccc(-c2ccccc2C(=O)O)cc1` [Telmisartan], the solubility in words entry was “practically insoluble”. For `O=P(O)(O)C(O)(Cn1ccnc1)P(=O)(O)O` [Zoledronic acid monohydrate], the solubility in words result is given as “sparingly soluble”. Take `COc1ccc2nc([S@@+]([O-])Cc3ncc(C)c(OC)c3C)[nH]c2c1` [Esomeprazole]: the solubility in words result is recorded as “very slightly soluble in water”. With `CCc1ccc(CCOc2ccc(CC3SC(=O)NC3=O)cc2)nc1` (centres unmarked) [Pioglitazone hydrochloride], the solubility in words result was “practically insoluble in water”.
